Reference: the supplement of paper PMC10307832

Legend:
Test in all cases: relative viability (nuclei count vs DMSO), 5 days (fraction); higher = more cells survive
[1] = compound: O=C(/C=C/c1cccnc1)NCCCCC1CCN(C(=O)c2ccccc2)CC1 [Daporinad] + CS(=O)(=O)N1CCN(Cc2cc3nc(-c4cccc5[nH]ncc45)nc(N4CCOCC4)c3s2)CC1 [Pictilisib] (partner 1 µM)
Outline: (§1)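 Cells from lung cancer lines were seeded into 1536-well plates and, one day later, dosed by pin tool. Treatments were either a single drug or a fixed dose of an anchor drug with five library-drug doses (not always all listed) in √10 steps. After 5 days, nuclei were stained in a one-step fixation (final 0.05% Triton X-100, 1% formaldehyde, 1 ug/ml Hoechst) and counted on 4× images, and relative viability is the treated-to-vehicle nuclei ratio, as the median of duplicate plates.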

[2] = compound: O=C(/C=C/c1cccnc1)NCCCCC1CCN(C(=O)c2ccccc2)CC1 [Daporinad] + Nc1nc2[nH]cc(CCc3ccc(C(=O)N[C@@H](CCC(=O)O)C(=O)O)cc3)c2c(=O)[nH]1 [Pemetrexed] (partner 0.2 µM)
Outline: as §1

[3] = compound: COc1cc(Nc2ncc(F)c(Nc3ccc4c(n3)NC(=O)C(C)(C)O4)n2)cc(OC)c1OC [R406] + Cc1nc(NC(=O)N2CCC[C@H]2C(N)=O)sc1-c1ccnc(C(C)(C)C(F)(F)F)c1 [Alpelisib] (partner 2 µM)
Outline: as §1

[4] = compound: COc1cc(Nc2ncc(F)c(Nc3ccc4c(n3)NC(=O)C(C)(C)O4)n2)cc(OC)c1OC [R406] + CC(=O)c1c(C)c2cnc(Nc3ccc(N4CCNCC4)cn3)nc2n(C2CCCC2)c1=O [Palbociclib] (partner 0.5 µM)
Outline: as §1

Cell Line	relative viability ([1]; first compound 0.0005 µM)	relative viability ([1]; first compound 0.001581 µM)	relative viability ([1]; first compound 0.005 µM)	relative viability ([1]; first compound 0.01581 µM)	relative viability ([2]; first compound 0.0005 µM)	relative viability ([2]; first compound 0.001581 µM)	relative viability ([2]; first compound 0.005 µM)	relative viability ([2]; first compound 0.01581 µM)	relative viability ([3]; first compound 0.08 µM)	relative viability ([3]; first compound 0.253 µM)	relative viability ([3]; first compound 0.8 µM)	relative viability ([3]; first compound 2.53 µM)	relative viability ([3]; first compound 8 µM)	relative viability ([4]; first compound 0.08 µM)	relative viability ([4]; first compound 0.253 µM)	relative viability ([4]; first compound 0.8 µM)	relative viability ([4]; first compound 2.53 µM)	relative viability ([4]; first compound 8 µM)
LK-2	0.605	0.689	0.46	0.354	0.314	0.331	0.188	0.142	0.98	1.05	1.02	0.803	0.566	0.592	0.679	0.854	0.574	0.542
LOU-NH91	0.528	0.568	0.587	0.577	0.383	0.359	0.509	0.482	0.726	0.718	0.789	0.51	0.449	0.532	0.547	0.499	0.552	0.538
LU99A	0.312	0.383	0.392	0.306	0.165	0.142	0.18	0.156	0.462	0.468	0.617		0.193	0.343	0.392	0.422	0.273	0.26
LXF-289	0.714	0.862	0.879	0.859	0.837	0.978	0.937	0.889	0.977	1.06	1.04	1	0.193	0.589	0.621	0.623	0.596	0.596
NCI-H23	0.59	0.502	0.446	0.347	0.797	0.562	0.767	0.31	0.638	0.759	0.786	0.732	0.438	0.496	0.539	0.629	0.454	0.155
NCI-H322M	0.482	0.55	0.575	0.52	0.638	0.634	0.635	0.46	0.811	0.807	0.774	0.375	0.457	0.463	0.452	0.468	0.456	0.354
NCI-H358	0.266	0.405	0.338	0.438	0.199	0.168	0.183	0.185	0.877	0.908	1	0.373	0.234	0.12	0.192	0.126	0.0867	0.0882
NCI-H441	0.435	0.631	0.588	0.507	0.242	0.243	0.268	0.291		0.843	0.878		0.296	0.214	0.191	0.204	0.137	0.118
NCI-H460	0.332	0.368	0.423	0.535	0.0681	0.0617	0.0618	0.0602	0.495	0.476	0.665		0.0573	0.157	0.2	0.183	0.0283	0.0792
NCI-H520	0.346	0.29	0.29	0.187	0.67	0.395	0.239	0.149	0.913	1.09	0.779	0.316	0.525	0.173	0.209	0.244	0.164	0.108
NCI-H647	0.403	0.556	0.489	0.53	0.193	0.191	0.173	0.21	0.977	1.03	1.52	0.461	0.12	0.387	0.37	0.426	0.261	0.0695
NCI-H650	0.937	0.962	1.02	1.05	0.903	0.949	1.02	1.16	1.25	1.04	1.16	0.87	0.802	0.34	0.412	0.322	0.289	0.253
NCI-H661	0.412	0.376	0.487	0.357	0.959	0.791	0.652	0.51	0.299	0.878	0.877	0.597	0.274	0.398	0.411	0.382	0.42	0.322
NCI-H838	0.507	0.559	0.592	0.53	0.249	0.262	0.172	0.179	0.971	1.11	1.16	0.547	0.541	0.227	0.236	0.247	0.179	0.107
NCI-H1355	0.417	0.549	0.628	0.576	1	1.1	1.03	0.873	0.838	0.917	0.985	0.547	0.497	0.404	0.366	0.416	0.329	0.278
NCI-H1395	0.615	0.697	0.574	0.674	0.839	1.05	0.896	0.927	1.13	1.04	1.09	0.813	0.619	0.609	0.663	0.652	0.47	0.551
NCI-H1437	0.418	0.527	0.433	0.553	0.312	0.313	0.316	0.332	1	1.09	1.17	0.928	0.487	0.318	0.349	0.363	0.391	0.229
NCI-H1651	0.642	0.683	0.629	0.601	0.602	0.557	0.659	0.545	0.9	1.03	1.04	0.699	0.512	0.496	0.578	0.531	0.511	0.527
